Reference: ChEMBL document CHEMBL1201862, “PubChem BioAssay data set” (2004)
Values joined by “and” are separate entries in the source; they are usually repeats but may differ in a detail not shown here. Equal entries are not always repeated. Active and inactive are the calls of the source.

How the values were obtained:
[1] = target: T1, RNA-binding protein pos-1 (Caenorhabditis elegans, UniProt G5EF15); experiment: inhibitors of POS-1/mex-3 RNA binding, dose response, biochemical, fluorescence polarization (AID 1964);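 also: purified POS-1 fused to maltose binding protein made in E. coli; potency of compounds blocking POS-1 binding to fluorescent RNA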
T1 sequence (G5EF15 whole entry): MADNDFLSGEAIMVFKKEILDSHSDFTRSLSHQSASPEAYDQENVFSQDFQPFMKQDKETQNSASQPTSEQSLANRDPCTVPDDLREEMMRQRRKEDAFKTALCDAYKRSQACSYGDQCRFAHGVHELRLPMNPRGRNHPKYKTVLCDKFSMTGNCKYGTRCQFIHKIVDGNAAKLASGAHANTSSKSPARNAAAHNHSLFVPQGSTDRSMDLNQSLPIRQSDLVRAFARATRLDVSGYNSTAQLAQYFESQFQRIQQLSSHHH

[2] = target: T2, Zinc finger protein mex-5 (Caenorhabditis elegans, UniProt Q9XUB2); experiment: MEX-5/TCR-2 RNA interaction inhibitors, dose response, biochemical, C. elegans, fluorescence polarization (AID 1960)
T2 sequence (Q9XUB2 whole entry): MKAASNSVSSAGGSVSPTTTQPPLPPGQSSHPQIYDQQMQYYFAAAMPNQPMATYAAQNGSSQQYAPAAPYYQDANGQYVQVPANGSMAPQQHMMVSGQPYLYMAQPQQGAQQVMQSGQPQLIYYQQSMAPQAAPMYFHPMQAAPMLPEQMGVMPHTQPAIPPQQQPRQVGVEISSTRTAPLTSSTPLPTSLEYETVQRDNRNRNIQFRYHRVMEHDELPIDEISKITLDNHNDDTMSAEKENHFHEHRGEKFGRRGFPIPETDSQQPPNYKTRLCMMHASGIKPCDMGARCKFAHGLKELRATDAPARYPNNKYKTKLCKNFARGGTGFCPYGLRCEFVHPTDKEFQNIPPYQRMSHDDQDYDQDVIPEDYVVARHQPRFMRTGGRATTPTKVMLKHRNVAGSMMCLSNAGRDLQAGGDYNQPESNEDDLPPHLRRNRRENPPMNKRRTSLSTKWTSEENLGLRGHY

Aminopeptidase N = target: T3, Aminopeptidase N (Plasmodium falciparum FcB1/Columbia, UniProt O96935); experiment: P. falciparum M1AAP inhibitors, biochemical, fluorogenic H-Leu-NHMec substrate, 1536-well (AID 1445); parameters: species or system Plasmodium falciparum 3D7, 3D7
T3 sequence (O96935 whole entry): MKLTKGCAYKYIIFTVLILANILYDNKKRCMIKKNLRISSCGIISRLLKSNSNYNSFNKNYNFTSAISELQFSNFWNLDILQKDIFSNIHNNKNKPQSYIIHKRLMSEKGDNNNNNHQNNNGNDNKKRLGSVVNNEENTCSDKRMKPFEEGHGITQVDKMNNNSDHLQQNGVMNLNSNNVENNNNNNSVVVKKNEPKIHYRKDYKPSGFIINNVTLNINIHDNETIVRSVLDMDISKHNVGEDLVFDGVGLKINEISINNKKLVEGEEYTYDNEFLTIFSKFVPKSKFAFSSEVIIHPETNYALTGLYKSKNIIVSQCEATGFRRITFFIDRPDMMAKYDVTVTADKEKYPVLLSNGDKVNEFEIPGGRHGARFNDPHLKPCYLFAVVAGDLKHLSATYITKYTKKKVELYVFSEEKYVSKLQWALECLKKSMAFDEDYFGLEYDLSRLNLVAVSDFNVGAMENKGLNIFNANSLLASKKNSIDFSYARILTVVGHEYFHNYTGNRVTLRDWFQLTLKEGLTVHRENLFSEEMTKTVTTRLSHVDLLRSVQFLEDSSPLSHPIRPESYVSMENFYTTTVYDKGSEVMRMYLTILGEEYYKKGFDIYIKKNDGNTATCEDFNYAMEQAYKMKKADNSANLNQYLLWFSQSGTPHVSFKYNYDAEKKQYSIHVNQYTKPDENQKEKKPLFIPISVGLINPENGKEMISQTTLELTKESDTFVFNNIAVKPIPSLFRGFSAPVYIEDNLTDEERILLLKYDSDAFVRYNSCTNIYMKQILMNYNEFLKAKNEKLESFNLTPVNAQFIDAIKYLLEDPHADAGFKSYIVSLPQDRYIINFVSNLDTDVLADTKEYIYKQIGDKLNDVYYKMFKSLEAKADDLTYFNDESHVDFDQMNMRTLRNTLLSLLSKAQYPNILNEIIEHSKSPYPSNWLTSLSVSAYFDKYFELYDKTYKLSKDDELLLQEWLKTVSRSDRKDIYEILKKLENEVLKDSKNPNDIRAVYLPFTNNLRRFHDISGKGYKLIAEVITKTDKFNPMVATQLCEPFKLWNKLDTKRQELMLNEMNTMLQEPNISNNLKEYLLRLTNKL

Cytochrome P450 2C9 = Cytochrome P450 2C9 (Homo sapiens, UniProt P11712)
Cytochrome P450 2C9, sequence (P11712 whole entry): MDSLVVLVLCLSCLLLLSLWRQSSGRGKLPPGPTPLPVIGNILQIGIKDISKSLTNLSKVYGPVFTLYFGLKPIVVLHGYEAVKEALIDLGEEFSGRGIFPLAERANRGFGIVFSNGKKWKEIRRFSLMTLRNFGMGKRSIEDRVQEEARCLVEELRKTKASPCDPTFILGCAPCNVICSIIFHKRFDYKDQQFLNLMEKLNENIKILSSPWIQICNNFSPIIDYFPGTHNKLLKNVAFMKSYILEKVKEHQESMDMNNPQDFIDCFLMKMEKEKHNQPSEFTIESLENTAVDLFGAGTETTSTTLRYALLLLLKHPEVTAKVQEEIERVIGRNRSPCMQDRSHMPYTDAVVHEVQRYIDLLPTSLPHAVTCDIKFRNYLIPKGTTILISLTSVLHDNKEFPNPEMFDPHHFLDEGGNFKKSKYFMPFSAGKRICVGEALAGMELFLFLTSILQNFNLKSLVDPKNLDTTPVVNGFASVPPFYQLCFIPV

[3] = C. albicans growth with fluconazole, confirmation, fluorescence, retest (AID 2467); format: functional, cell-based
[4] = NIH-3T3 fibroblast cytotoxicity, dose response, cytotoxicity control, cell-based, fluorescence, Alamar Blue, secondary assay (AID 2327); format: functional;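 also: NIH-3T3 mouse fibroblasts cultured with fluconazole at 8 µg/mL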
Genome polyprotein = Genome polyprotein (dengue virus type 2, UniProt P29990); experiment: Dengue-2 NS5 methyltransferase inhibitors, primary screen, biochemical, confirmation dose response (AID 588689); format: functional
Genome polyprotein, sequence (P29990 2492-3391 limits assumed): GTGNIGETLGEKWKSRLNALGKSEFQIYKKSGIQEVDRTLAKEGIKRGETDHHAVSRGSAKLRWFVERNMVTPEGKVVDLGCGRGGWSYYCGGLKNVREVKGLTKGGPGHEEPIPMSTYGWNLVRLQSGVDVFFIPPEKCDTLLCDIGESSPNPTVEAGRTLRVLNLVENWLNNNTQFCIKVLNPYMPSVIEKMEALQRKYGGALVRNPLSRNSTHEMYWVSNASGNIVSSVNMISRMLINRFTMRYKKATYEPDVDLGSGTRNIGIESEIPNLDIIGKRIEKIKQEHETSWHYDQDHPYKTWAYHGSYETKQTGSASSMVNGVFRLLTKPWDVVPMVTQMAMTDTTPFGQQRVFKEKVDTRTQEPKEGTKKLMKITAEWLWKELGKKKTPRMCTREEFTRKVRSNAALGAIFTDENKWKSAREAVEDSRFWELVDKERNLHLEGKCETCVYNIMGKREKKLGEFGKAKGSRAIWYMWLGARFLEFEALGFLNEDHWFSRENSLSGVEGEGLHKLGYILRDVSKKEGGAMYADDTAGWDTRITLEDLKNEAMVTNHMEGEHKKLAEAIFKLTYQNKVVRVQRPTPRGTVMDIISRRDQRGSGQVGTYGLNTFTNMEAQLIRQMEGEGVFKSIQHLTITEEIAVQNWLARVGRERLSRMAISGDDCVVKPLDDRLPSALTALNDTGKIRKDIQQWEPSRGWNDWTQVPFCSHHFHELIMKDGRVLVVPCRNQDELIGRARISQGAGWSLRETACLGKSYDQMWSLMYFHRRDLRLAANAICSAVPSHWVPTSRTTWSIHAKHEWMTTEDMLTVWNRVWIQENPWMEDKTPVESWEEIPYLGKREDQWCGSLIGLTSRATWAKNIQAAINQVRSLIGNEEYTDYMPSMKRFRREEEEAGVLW

Leucine aminopeptidase = target: T4, Leucine aminopeptidase (Plasmodium falciparum 3D7, UniProt Q8IL11); experiment: P. falciparum M17LAP inhibitors, primary screen, biochemical, fluorogenic H-Leu-NHMec substrate, 1536-well (AID 1619); format: functional
T4 sequence (Q8IL11 whole entry): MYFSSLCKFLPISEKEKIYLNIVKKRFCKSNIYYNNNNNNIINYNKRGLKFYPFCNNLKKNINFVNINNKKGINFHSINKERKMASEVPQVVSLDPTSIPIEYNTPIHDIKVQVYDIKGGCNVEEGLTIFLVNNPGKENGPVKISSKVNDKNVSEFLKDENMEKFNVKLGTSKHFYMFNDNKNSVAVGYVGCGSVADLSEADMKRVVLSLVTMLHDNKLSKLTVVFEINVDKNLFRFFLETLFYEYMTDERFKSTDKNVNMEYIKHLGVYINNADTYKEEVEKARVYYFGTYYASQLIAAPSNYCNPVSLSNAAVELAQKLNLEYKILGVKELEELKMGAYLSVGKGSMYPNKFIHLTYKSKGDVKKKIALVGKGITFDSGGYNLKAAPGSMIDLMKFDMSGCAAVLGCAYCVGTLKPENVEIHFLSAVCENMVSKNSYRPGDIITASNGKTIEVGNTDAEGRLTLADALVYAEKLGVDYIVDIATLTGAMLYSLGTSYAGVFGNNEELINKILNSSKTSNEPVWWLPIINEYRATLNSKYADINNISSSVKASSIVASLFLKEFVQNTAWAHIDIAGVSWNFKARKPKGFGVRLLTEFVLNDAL

[5] = HEp-2 cell cytotoxicity, dose response, cytotoxicity control for RSV inhibitor project, HTS (AID 2410); format: functional; conditions: human respiratory syncytial virus
cells [6] = experiment: cells
[7] = inhibitors of intracellular T. cruzi replication, confirmation, NIH3T3 host cells, beta-gal luminescence (AID 2044); format: functional, cell-based;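 also: intracellular parasites grown in NIH/3T3 mouse fibroblasts as host cells; luminescent beta-galactosidase reporter signal from transgenic T. cruzi replicating inside host cells; inhibitors lower the luminescence signal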
[8] = THP-1 cell cytotoxicity, dose response, cytotoxicity control for non-replicating M. tuberculosis project (AID 489025); format: functional
cells [9] = format: functional
[10] = cytotoxicity toward NIH3T3 fibroblasts, dose response, counter-screen, cell-based, ATP luminescence, mouse fibroblasts (AID 2010); format: functional;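 also: cells exposed to compound for about 90 hours before reading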
[11] = Vero E6 cell cytotoxicity, dose response, cytotoxicity control for non-replicating M. tuberculosis project, secondary assay (AID 492998); format: functional, VeroE6; conditions: Vero C1008
INS1 = experiment: beta cell apoptosis inhibitors, cytokine rescue, dose response, luminescence, retest (AID 449756); format: functional, cell-based; conditions: Rattus norvegicus;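 also: cell death triggered by IL-1 beta plus TNF-alpha plus IFN-gamma mixture; protective hits raise ATP signal compared with cytokine alone wells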
Cytochrome P450 3A4 = Cytochrome P450 3A4 (Homo sapiens, UniProt P08684); conditions: Potency;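 also: confirmatory qHTS run detecting inhibitors and substrates of CYP3A4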
Cytochrome P450 3A4, sequence (P08684 whole entry): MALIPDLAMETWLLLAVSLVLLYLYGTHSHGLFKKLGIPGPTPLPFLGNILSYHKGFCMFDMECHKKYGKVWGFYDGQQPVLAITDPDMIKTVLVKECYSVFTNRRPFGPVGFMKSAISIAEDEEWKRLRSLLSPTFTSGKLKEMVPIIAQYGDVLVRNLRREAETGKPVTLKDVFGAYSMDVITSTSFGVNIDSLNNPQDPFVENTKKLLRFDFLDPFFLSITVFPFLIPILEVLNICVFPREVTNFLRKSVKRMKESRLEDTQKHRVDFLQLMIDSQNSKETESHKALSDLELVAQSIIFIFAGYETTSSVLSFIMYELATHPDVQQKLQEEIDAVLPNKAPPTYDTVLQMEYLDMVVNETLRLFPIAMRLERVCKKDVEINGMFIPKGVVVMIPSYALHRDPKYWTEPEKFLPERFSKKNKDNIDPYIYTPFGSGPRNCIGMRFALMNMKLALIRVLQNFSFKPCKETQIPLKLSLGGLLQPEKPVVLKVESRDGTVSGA

## O=C1NC(=O)N(c2ccc(Cl)cc2)C(=O)/C1=C/NCCN1CCCCC1
[1]
  EC50: > 300 µM (not active)
[2]
  EC50: > 300 µM (not active)

## O=C(COc1ccccc1/C=C1\SC(=O)NC1=O)Nc1ccc(F)cc1
Aminopeptidase N
  IC50: 27.5 µM (active)

## Cn1cccc1C(=O)C(=O)Nc1cccc(Cl)c1Cl
Cytochrome P450 2C9
  AC50: inconclusive

## O=C(O)CSc1nc(-c2ccc(Cl)cc2)nc2c1oc1ccccc12
Aminopeptidase N
  IC50: 82.7 µM (active)
[3]
  EC50: 1.93 µM (active)
[4]
  EC50: 6.56 µM (active)
Genome polyprotein
  IC50: 40.6 µM (active)
Leucine aminopeptidase
  IC50: 34.6 µM (active)

## O=C1CCCC2=C1C(c1ccccc1)C1C(=O)c3ccccc3C1=N2 (configuration not stated)
[5]
  CC50: > 50 µM (active)
Cells [6]
  IC50: 39.8 µM (active)

## COc1ccc(/C=C/C(=O)NCc2nc3ccccc3[nH]2)cc1OC
Cells [6]
  IC50: 30.6 µM (active)

## CCN1CCN(c2ccc(S(=O)(=O)N3CCCCC3)cc2NC(=O)c2ccc([N+](=O)[O-])o2)CC1
[7]
  EC50: 0.741 µM (active)
[8]
  CC50: 19.1 µM (active)
Cells [9]
  IC50: 12.8 µM (active)
[10]
  EC50: 23.8 µM (active)
[11]
  CC50: 16.7 µM (active)
INS1
  AC50: 3.27 µM (active)

## COC(=O)C1=C(C)N(Cc2ccccc2)C2=C3C(=O)N(c4ccccc4)C(=O)C3[C@@](O)(C(=O)OC)C(=O)N2C1c1ccccc1 (some centres not stated)
Cytochrome P450 3A4
  AC50: 3.98 µM (inconclusive) and 3.16 µM (inconclusive)

## Cc1c(Cl)cccc1N=C(S)N1CCN(C(=O)C2CCCO2)CC1 (configuration not stated)
[1]
  EC50: > 300 µM (not active)
[2]
  EC50: > 300 µM (not active)

## Cc1nc2ccccc2c(=O)n1NC(=O)c1ccco1
Aminopeptidase N
  IC50: 70.7 µM (active)
